Source: patent US20250090576A1, “METHODS FOR TREATING NONTUBERCULOUS MYCOBACTERIA DISEASES” (Microbion Corporation, priority 2022, published 2025)

Legend:
[1] = tested on: M. abscessus cystic fibrosis patient strain 00703 in THP-1 macrophages; test: Mycobacterial survival (CFU) in infected THP-1 macrophages; assay type: cell-based; details: CF patient strain 00703; after 3 days; drugs at MIC
Protocol: (§1) THP-1 macrophages were differentiated with 50 ng/ml PMA for 24 hours, followed by 24 hours in media prior to infection. Differentiated THP-1 macrophages were either infected with M. avium strains or M. abscessus strains for 1 hour with an multiplicity of infection (MOI) of 5 or uninfected. Cells were washed twice, followed by 1 hour of antibiotic treatment with 200 μg/ml of amikacin to remove extracellular bacteria. After the antibiotic step, cells were washed once more and BisEDT (BIZ) or amikacin was added once to selected wells (see in vitro doses below).
(§2) The treatments included: vehicle, amikacin, Soluble BisEDT (S Biz), Insoluble BisEDT (I Biz), and amikacin+BisEDT. The time points for sample preparation were 72 h for M. abscessus strains and 4- and 7-days post infection for M. avium strains. At the indicated timepoints cell media was removed and replaced with 400 ul of 0.1% triton x-100 in H2O for lysis. Wells were pipetted 25 times to disrupt cells then diluted and plated for CFU enumeration.

[2] = tested on: M. abscessus cystic fibrosis patient strain 01715 in THP-1 macrophages; test: as above; assay type: cell-based; details: CF patient strain 01715; after 3 days; drugs at MIC
Protocol: as §1, §2

[3] = tested on: M. abscessus strain 19977 in THP-1 macrophages; test: as above; assay type: cell-based; details: after 3 days, drugs at MIC
Protocol: as §1, §2

[4] = tested on: CF patient strain 00133 in THP-1 macrophages; test: as above; assay type: cell-based, M. avium; details: amikacin-resistant CF patient strain 00133; each of the BisEDT formulations; 4 and 7 days
Protocol: as §1, §2

[5] = tested on: M. abscessus strains in THP-1 macrophages; test: Infected THP-1 macrophages, summary over strains; assay type: cell-based; details: 3 days post-treatment
Protocol: as §1, §2

[6] = tested on: three clinical isolates of M. avium in macrophages; test: Infected THP-1 macrophages, summary over strains; assay type: cell-based; details: three clinical isolates of M. avium incl. amikacin-resistant isolate
Protocol: as §1, §2

[7] = tested on: M. abscessus in THP-1 macrophages; test: TEM of infected THP-1 macrophages (mechanism of action); assay type: cell-based; details: 4 μg/ml insoluble BisEDT; 24 h and 48 h
Protocol: (§3) THP-1 macrophages were differentiated with 50 ng/ml PMA for 24 hours, followed by 24 hours in media prior to infection. Differentiated THP-1 macrophages were infected with M. avium or M. abscessus for 1 hour with a multiplicity of infection (MOI) of 10. Infected cells were washed twice, followed by 1 hour of antibiotic treatment with 200 μg/ml of amikacin to remove extracellular bacteria. After the antibiotic step, cells were washed once more and 4 μg/ml insoluble BisEDT (BIZ) was added to selected wells. The treatments included: (1) untreated, (2) untreated+infected with MAH 104, (3) untreated+infected with M. abscessus, (4) BIZ treated, (5) BIZ treated+infected with MAH 104, and (6) BIZ treated+infected with M. abscessus. The time points for sample preparation were 24 h and 48 h.p.i. Cells were not washed prior to transmission electron microscopy TEM sample preparation, to preserve any extracellular bacteria that may have been present. Cells were detached by treatment with 5 mM EDTA for […], quenched with 1×HBSS, and suspended in fixative buffer with 2.5% glutaraldehyde, 1% formaldehyde, and 0.1 M sodium cacodylate for 24 hours prior to submission to the electron microscopy facility for processing. Samples were sectioned, dehydrated, and visualized by a FEIT Titan 80-200 TEM/STEM microscope.

[8] = tested on: M. avium (MAH 104) in THP-1 macrophages; test: as above; assay type: cell-based; details: 4 μg/ml insoluble BisEDT; 24 h and 48 h
Protocol: as §3

[9] = tested on: M. abscessus strain 19977; test: Chronic M. abscessus lung infection in SCID/Beige mice, inhalation treatment 28 days; assay type: in vivo; details: for CFU count in lung homogenates, effect in words: inhaled
Protocol: A total of sixty female SCID/Beige mice between 6-8 weeks of age were used. Mice were placed up to 4 animals per cage and allowed 1 week of acclimation prior to infection.
Inoculums of M. abscessus strain 19977 (MAB) used in this study were made from highly virulent frozen stocks with low passage numbers. Bacteria were allowed to grow to log phase after 4 days on 7H10 media agar plates at 37° C. Once confluent, inoculums were made by suspending bacteria at 10^9 in Hank's balanced salt solution (HBSS) as determined by optical density (O.D.) and further quantified by serial dilution to determine the CFU/mL of suspension. At this higher concentration of bacteria, only 20 μL of inoculum was necessary to deposit […] bacteria per mouse.
On the day of infection mice were anesthetized with isoflurane by the drop jar method. Mice were scruffed in a standard one-handed grip and the nose of the mouse is held of a tube containing gauze containing a small amount of isoflurane. Mice were monitored for breathing and once rapid breaths have slowed down initially the mouse is removed from direct anesthesia and 20 μL of bacterial suspension was deposited on the left nostril. The mice then slowly breath in the droplet. Each mouse was then held in hand until complete consciousness was obtained and then the mouse was replaced into its home cage. After infection was initiated, 3 weeks were allowed to pass in order to allow the bacteria to establish a chronic lung pathology for eventual treatment.
After establishing each infection, 12 mice were euthanized the day before treatment began to determine the baseline bacterial load. Mice were euthanized using CO2 in accordance with the recommendations of the Guide for the Care and Use of Laboratory Animals (NRC 2011). Lungs and spleens were collected and homogenized then serial diluted for CFU enumeration.
A nose-only inhalation exposure chamber from CH technologies was used for this experiment. Mice were split into four treatment groups, Vehicle (buffer containing no BisEDT), amikacin (100 μg/kg/day), BisEDT “low” (200 μg/kg/day), and BisEDT “high” (1000 μg/kg/day). Each treatment group consisted of 12 mice. Ten of these mice were used for CFU determination and two mice are used for histology/pathology/lung pharmacokinetics. Treatment was conducted 6 days a week over the course of 28 days total. To create the correct level of deposited dose of each drug tested, 10 mL of test article were made. Amikacin in HBSS at 20 mg/mL was made and stored at 4° C. until needed. […]
After 28 days of treatment with BisEDT, animals were euthanized by Co2 and secondary cardiac puncture to collect whole blood for quantitation of BisEDT concentration. […] CFUs were determined after serial dilution. […]

[10] = tested on: M. abscessus from lung homogenates; test: Resistance plating of treated mouse lung homogenates on agar with 1 μg/ml BisEDT; assay type: cell-based; details: mice treated with BisEDT for 28 days
Protocol: Lung homogenates from the M. abscessus […] infection were thawed from frozen at 37° C. for 2 hours. To reduce the effect of the Dey-Engley deactivation buffer, mouse homogenates were diluted 1:10 in water before replating samples onto 7H10 agar plates containing 1 μg/ml BisEDT (MIC level). Once plated samples were incubated at 37° C. over 3 days and plate colonies were counted to determine CFUs of resistance.
Colony forming units were compared from the initial plating with no BisEDT in the agar plates; to replating on agar plates containing 1 μg/mL BisEDT.

[11] = tested on: M. abscessus isolates from murine lung homogenates; test: MIC analysis of select bacterial isolates from murine lung homogenates; assay type: cell-based; details: isolates from treated mouse lungs
[12] = Earlier 28-day tolerability work on rats; details: 28 days, doses as high as

## C1C[S][Bi]([S]CC[S][Bi]2[S]CC[S]2)[S]1 [BisEDT, bismuth-1,2-ethanedithiol]
[1]
  mycobacterial survival (CFU, bacterial load) in THP-1 macrophages, in words: greatly reduced bacterial load in macrophages
[2]
  mycobacterial survival (CFU, bacterial load) in THP-1 macrophages, in words: greatly reduced bacterial load in macrophages
[3]
  mycobacterial survival (CFU, bacterial load) in THP-1 macrophages, in words: reduced bacterial loads in THP-1 cells
[4]
  mycobacterial survival (CFU) in THP-1 macrophages, in words: bacteriostatic effect
[5]
  effect in infected macrophages, in words: bactericidal by itself
[6]
  effect in infected macrophages, in words: bactericidal
[7]
  TEM observation on mycobacteria cell wall: loss of the integrity of the polar region initially, and the whole cell wall in a more advanced stage
[8]
  TEM observation on mycobacteria cell wall: loss of the integrity of the polar region initially, and the whole cell wall in a more advanced stage
[9]; 200 and 1000 μg/kg/day inhaled
  lung CFU response, in words: dose-dependent response
[9]; 200 and 1000 μg/kg/day inhaled, mice responsive, normal weight range
  tolerability in infected mice: well tolerated
[9]; BisEDT high, 1000 μg/kg
  CFU count in lung homogenates, effect in words: bactericidal
[9]; BisEDT low, 200 μg/kg
  CFU count in lung homogenates, effect in words: bacteriostatic effect
[10]
  development of resistance, in words: little development of resistance
[11]
  MIC of select isolates, in words: did not show a change in resistance
[12]
  dose with high tolerability, without adverse effects: 59 µg/kg/day
